Ten compounds from patent publication US20170042915A1, “LPA RECEPTOR MODULATORS FOR BROWN FAT DIFFERENTIATION” (The California Institute for Biomedical Research, priority 2015, published 2017) can be followed below.

Molecules are shown by their SMILES.

In one experiment the test system is SGBS preadipocytes. In words: Brown adipocyte differentiation of SGBS preadipocytes with or without exogenous LPA. The experiment is classed as cell-based, human. As to conditions: day 11 SGBS adipocytes, compound during days 3-4 of induction, 10 μM LPA during days 1-4; FIG. 6A. The procedure:
SGBS preadipocytes were plated in 384 plates as previously described but using induction media with or without the addition of 10 μM lysophosphatidic acid (LPA) for the first 2 days. On day 3, cells were treated with 10 μL of 6× concentration of compound 19 (final concentration was a 1:3 serial dilution starting at 20 μM) again with or without the addition of LPA. On day 5, media was changed to maintenance media until day 11. Staining and analysis of brown adipocytes based on UCP1 and lipid performed as described previously.

Experiment [1] has as its system Human Simpson-Golabi-Behmel syndrome (SGBS) preadipocytes. In words: Brown cell differentiation of SGBS preadipocytes, high content imaging with anti-UCP1 and LipidTox staining. The experiment is classed as cell-based. As to conditions: concentration not given; for % Brown (adipocytes): day 11, LipidTox and UCP1 positive; for % White (adipocytes): day 11, LipidTox positive, below UCP1 threshold; for UCP1 fold: day 11, UCP1 staining. The procedure: OF Media included 1% Anti-Anti, […] biotin, […] panthotenate, and DMEM:F12 (1:1) media. Growth media included OF Media and 10% Fetal Bovine Serum. Differentiation induction media included OF Media, 10 μg/mL Insulin, 0.5 mM IBMX, and 1 μM Dexamethasone. The maintenance media included OF media and 10 μg/mL Insulin.
Human Simpson-Golabi-Behmel syndrome (SGBS) preadipocyteswere cultured in T225 flasks containing Growth Media. Upon passaging, cells were trypsinized, collected, spun down at 1250 g for 5 minutes at 20° C. to pellet. Cells were then resuspended in growth media before seeding cells at optimal density to maintain 75-80% confluency before passaging every 3-4 days.
Compounds at varying concentrations (starting at 20 uM with 1:3 dilution) were spotted onto 384-well black clear bottom plates (Greiner). The negative control consisted of DMSO while positive controls contained 2 uM of Rosiglitazone (Cayman). 50 μL of SGBS cells in induction were seeded directly on top of compound at a concentration of 1.1×10^5 cells/mL (˜5500 cells/well). After 4 days of induction, media was changed to 50 μL of maintenance media. Every 2-4 days after, media was changed again with 50 μL maintenance media until day 11.
After 11 days of differentiation, cells were fixed with 10 μL of 32% Paraformaldehyde for 10 minutes, followed by 10 μL of 7% Triton X-100 for another 10 minutes. Media was then aspirated down to 5 μL, 25 μL of Blocking Buffer 1 (2% BSA and 2.5% goat serum) was added, and plates were incubated for 1 hour. Plates were then aspirated down to 5 μL and 25 μL of primary antibody was added for 16 hour incubation. Primary antibody containing UCP1 (Sigma; Rabbit; 1:100) was diluted in Blocking Buffer 2 (2% BSA).
The next day, plates were washed 3 times with 1× PBS and 25 μL of secondary antibody were added. Secondary antibody containing Hoechst (1:6000), Alex Fluor 647 goat Anti-Rabbit (1:1000), and HCS LipidTOX Green Neutral Lipid Stain (Life Technologies; 1:800) were diluted in Blocking Buffer 2 (2% BSA). After 1 hour of incubation at room temperature, plates were washed 3 times with 1× PBS and left in 50 μL of PBS. Plates were then sealed and imaged.
Plates were imaged using CellInsight CX5 High Content Screening (HCS) Platform. Total cell number was detected using Hoechstand images were used to quantify total adipocytes (met defined threshold of lipidtox staining intensity).

With `COC(=O)CCSCc1ccc(-c2onc(C)c2NC(=O)OC(C)c2ccccc2Cl)cc1` (stereo not shown) [Compound 19], the “induction of brown adipocyte differentiation in the presence of exogenous LPA” value with SGBS preadipocytes is given as “attenuated induction of brown adipocyte differentiation”.

Regarding `COC(=O)c1ccc(NS(=O)(=O)c2ccc(-c3c(C)noc3C)cc2)cc1` [Compound 10], in experiment [1] (1st of 3 sub-columns), the “% Brown (adipocytes)” value came to 17%, the “% White (adipocytes)” value was 6% and the UCP1 fold amounted to 1.5x. Besides, in experiment [1] (2nd of 3 sub-columns), the “% Brown (adipocytes)” value came to 21%, the “% White (adipocytes)” value is reported as 8% and the UCP1 fold is 1.5x. In experiment [1] (3rd of 3 sub-columns), the “% Brown (adipocytes)” value came to 29%, the “% White (adipocytes)” value is reported as 10% and the UCP1 fold was determined as 2.0x.

Regarding `Cc1sc(-c2noc(C(C)C)n2)cc1S(=O)(=O)N1CCC(C(=O)NCc2cccs2)CC1` [Compound 5], in experiment [1] (1st of 3 sub-columns), the “% Brown (adipocytes)” value is recorded as 18%, the “% White (adipocytes)” value is on record as 3% and the UCP1 fold is recorded as 1.8x. In experiment [1] (2nd of 3 sub-columns), the “% Brown (adipocytes)” value is 22%, the “% White (adipocytes)” value came to 7% and the UCP1 fold stood at 1.8x. Also, in experiment [1] (3rd of 3 sub-columns), the “% Brown (adipocytes)” value is 28%, the “% White (adipocytes)” value was 7% and the UCP1 fold is recorded as 2.2x.

In the case of `Cc1sc(-c2noc(C(C)C)n2)cc1S(=O)(=O)N1CCC(C(=O)N(C)Cc2ccco2)CC1` [Compound 6], in experiment [1] (1st of 3 sub-columns), the “% Brown (adipocytes)” value was 14%, the “% White (adipocytes)” value is 6% and the UCP1 fold was determined as 1.2x. For the same compound, in experiment [1] (2nd of 3 sub-columns), the “% Brown (adipocytes)” value is reported as 23%, the “% White (adipocytes)” value is reported as 6% and the UCP1 fold is given as 1.7x. For the same compound, in experiment [1] (3rd of 3 sub-columns), the “% Brown (adipocytes)” value was 29%, the “% White (adipocytes)” value stood at 5% and the UCP1 fold was found to be 2.4x.

Regarding `Cc1nn(-c2ccccc2)c(C)c1S(=O)(=O)N1CCC(C(=O)NCCc2cccs2)CC1` [Compound 3], in experiment [1] (1st of 3 sub-columns), the “% Brown (adipocytes)” value was 20%, the “% White (adipocytes)” value came to 10% and the UCP1 fold was 1.6x. Further, in experiment [1] (2nd of 3 sub-columns), the “% Brown (adipocytes)” value is reported as 28%, the “% White (adipocytes)” value came out at 8% and the UCP1 fold is recorded as 2.1x. Also, in experiment [1] (3rd of 3 sub-columns), the “% Brown (adipocytes)” value came to 30%, the “% White (adipocytes)” value amounted to 5% and the UCP1 fold is reported as 2.9x.

Take `Cc1ccc(NS(=O)(=O)c2ccc(-c3c(C)noc3C)cc2)cc1Cl` [Compound 11]: in experiment [1] (1st of 3 sub-columns), the “% Brown (adipocytes)” value is recorded as 18%, the “% White (adipocytes)” value worked out at 4% and the UCP1 fold amounted to 1.7x. For the same compound, in experiment [1] (2nd of 3 sub-columns), the “% Brown (adipocytes)” value amounted to 22%, the “% White (adipocytes)” value was 6% and the UCP1 fold turned out to be 1.8x. Moreover, in experiment [1] (3rd of 3 sub-columns), the “% Brown (adipocytes)” value is 24%, the “% White (adipocytes)” value is listed as 11% and the UCP1 fold stood at 1.7x.

Take `Cc1ccc(CNC(=O)C2CCN(S(=O)(=O)c3cc(-c4noc(C5CC5)n4)sc3C)CC2)o1` [Compound 1]: in experiment [1] (1st of 3 sub-columns), the “% Brown (adipocytes)” value stood at 15%, the “% White (adipocytes)” value came out at 6% and the UCP1 fold was 1.2x. For the same compound, in experiment [1] (2nd of 3 sub-columns), the “% Brown (adipocytes)” value was found to be 27%, the “% White (adipocytes)” value was 3% and the UCP1 fold is reported as 2.6x. Moreover, in experiment [1] (3rd of 3 sub-columns), the “% Brown (adipocytes)” value was found to be 30%, the “% White (adipocytes)” value is listed as 4% and the UCP1 fold is recorded as 2.7x.

With `Cc1ccc(C)c(-c2csc(Nc3ccc(S(=O)(=O)Nc4cc(C)on4)cc3)n2)c1` [Compound 9], in experiment [1] (1st of 3 sub-columns), the “% Brown (adipocytes)” value came to 18%, the “% White (adipocytes)” value worked out at 5% and the UCP1 fold worked out at 1.5x. Further, in experiment [1] (2nd of 3 sub-columns), the “% Brown (adipocytes)” value turned out to be 21%, the “% White (adipocytes)” value came out at 6% and the UCP1 fold is listed as 1.9x. Further, in experiment [1] (3rd of 3 sub-columns), the “% Brown (adipocytes)” value turned out to be 31%, the “% White (adipocytes)” value came out at 6% and the UCP1 fold was 2.7x.

As to `Cc1sc(-c2noc(C3CCC3)n2)cc1S(=O)(=O)N1CCC(C(=O)NCc2ccco2)CC1` [Compound 4], in experiment [1] (1st of 3 sub-columns), the “% Brown (adipocytes)” value turned out to be 17%, the “% White (adipocytes)” value is 5% and the UCP1 fold is 1.5x. Moreover, in experiment [1] (2nd of 3 sub-columns), the “% Brown (adipocytes)” value is on record as 22%, the “% White (adipocytes)” value is 7% and the UCP1 fold is given as 1.6x. Moreover, in experiment [1] (3rd of 3 sub-columns), the “% Brown (adipocytes)” value is given as 30%, the “% White (adipocytes)” value was 5% and the UCP1 fold was found to be 2.6x.

As for `Cc1nc(-c2cc(S(=O)(=O)N3CCC(C(=O)NCCc4cccs4)CC3)c(C)s2)no1` [Compound 2], in experiment [1] (1st of 3 sub-columns), the “% Brown (adipocytes)” value is listed as 29%, the “% White (adipocytes)” value is listed as 9% and the UCP1 fold came out at 2.2x. Moreover, in experiment [1] (2nd of 3 sub-columns), the “% Brown (adipocytes)” value was 34%, the “% White (adipocytes)” value came to 8% and the UCP1 fold turned out to be 2.8x. Besides, in experiment [1] (3rd of 3 sub-columns), the “% Brown (adipocytes)” value is 34%, the “% White (adipocytes)” value is listed as 7% and the UCP1 fold is listed as 2.9x.
